For this test, the system named is Mycobacterium tuberculosis. In words: Antimycobacterial activity against multi-drug resistant Mycobacterium tuberculosis. The format is functional.

≈ marks a conversion by molar mass, not a printed value.

By MIC is commonly meant the lowest concentration found to suppress growth. On to `CC(=O)NC[C@H]1CN(c2ccc(N3CCOCC3)c(F)c2)C(=O)O1` [LINEZOLID], for which the minimal inhibitory concentration (MIC) is 0.125 µg/mL (≈ 0.371 µM).

In turn, H-GWLDVAKKIGKAAFNVAKNFI-OH came in with an MIC of less than 0.98 µg/mL.
